Legend:
[1] = tested on: Corn Earworm (Helicoverpa zea); assay: Insecticidal diet-surface test for corn earworm; format: in vivo; details: second-instar corn earworm, 50 ug/cm2 on diet surface, 5 days after treatment, dead insects of 8
Procedure: (§1) The compounds identified in Table 1 were prepared using the procedures illustrated in the foregoing examples, and the compounds were tested against beet armyworm and corn earworm as follows:
(§2) Insecticidal Test for Corn Earworm (Helicoverpa zea) and Beet Armyworm (Spodoptera exigua).
(§3) To prepare test solution, the test compound was formulated at 2000 ppm solution as 4 mg/2 mL of 9 acetone:1 tap water. 50 μL of the 2000 ppm (equivalent to 50 ug/cm^2 dose on diet surface area) test solution was pipetted upon the surface of 1 mL of lepidopteran diet (Southland Multi-Species Lepidopteran Diet) contained in each of eight wells per insect species (one well=1 replication). A second-instar corn earworm and beet armyworm was placed upon the treated diet in each well once the solvent had air-dried. Trays containing the treated diet and larvae were covered and then held in a growth chamber at 25° C., 50-55% RH, and 16 hr light:8 hr dark for 5 days. Observation were conducted 5 days after treatment and infestation. The number of dead insects of 8 per species per treatment was then determined and the results are given in Table 1 as percent control at a dose of […].
(§4) Keys to the table: Mass spectral data were obtained using liquid chromatography mass spectroscopy (LC-MS). The masses are detected using electrospray ionization (ESI) and reported as Mol Ion (M+H, M−H); AVG LAPHEG 50 refers to activity against beet army worm (Spodoptera exigua) as defined above; AVG HELIZE 50 refers to activity against corn ear worm (Helicoverpa zea) as described above.

[2] = tested on: Beet Armyworm (Spodoptera exigua); assay: Insecticidal diet-surface test for beet armyworm; format: in vivo; details: second-instar beet armyworm, 50 ug/cm2 on diet surface, 5 days after treatment, dead insects of 8
Procedure: as §1, §2, §3, §4

| SMILES | HELIZE 50 (ug/cm2), percent control [1] [%] | LAPHEG 50 (ug/cm2), percent control [2] [%] |
| --- | --- | --- |
| FC(F)(F)c1ccc(/C=N/Nc2nc(Cl)cc(Nc3ccc(Cl)cc3)n2)cc1 [Compound 46] | 100 | 100 |
| CC(C)(C)C(=O)OC(c1cccc(Nc2cc(Cl)nc(N/N=C/c3ccc(OC(F)(F)F)cc3)n2)c1)C(F)(F)F (stereo not drawn) [Compound 53] | 0 | 38 |
| FC(F)C(F)(F)Oc1ccc(Nc2cc(Cl)nc(N/N=C/c3ccc(OC(F)(F)F)cc3)n2)cc1 [Compound 6] | 100 | 100 |
| CN(/N=C/c1ccc(OC(F)(F)C(F)F)cc1)c1nc(Cl)cc(Nc2ccc(F)c(C(F)(F)F)c2)n1 [Compound 58] | 100 | 100 |
| OC(c1ccc(Nc2cc(F)nc(NN=Cc3ccc(OC(F)(F)C(F)F)cc3)n2)cc1)(C(F)(F)F)C(F)(F)F [Compound 22] | 100 | 100 |
| FC(F)(F)c1ccc(/C=N/Nc2nc(Cl)cc(Nc3cccc(Cl)c3)n2)cc1 [Compound 31] | 100 | 100 |
| Fc1ccc(Nc2cc(Cl)nc(N/N=C/c3ccc(OC(F)(F)F)cc3)n2)cc1C(F)(F)F [Compound 1, (6-Chloro-2-{N′-[1-(4-trifluoromethoxyphenyl)-methylidene]-hydrazino}-pyrimidin-4-yl)-(4-fluoro-3-trifluoromethylphenyl)amine] | 100 | 100 |
| CCOc1ccc(/C=N/Nc2nc(Cl)cc(Nc3ccc(F)c(C(F)(F)F)c3)n2)cn1 [Compound 67] | 100 | 100 |
| FC(F)(F)COc1ccc(/C=N/Nc2nc(Cl)cc(Nc3cccc(Cl)c3)n2)cn1 [Compound 71] | 100 | 100 |
| Clc1ccc(Nc2cc(Cl)nc(N/N=C/c3ccc(N4CCCCC4)cc3)n2)cc1 [Compound 27] | 100 | 38 |
| Fc1ccc(/C=N/Nc2nc(Cl)cc(Nc3cccc(Br)c3)n2)cc1C(F)(F)F [Compound 52] | 75 | 38 |
| Fc1ccc(Nc2cc(Cl)nc(N/N=C/c3ccc(Br)nc3)n2)cc1C(F)(F)F [Compound 66] | 75 | 100 |
| Fc1cnc(Nc2cccc(C(F)(F)F)c2)nc1NN=Cc1ccc(OC(F)(F)F)cc1 [Compound 79] | 100 | 100 |
| CCNCCNc1cc(Nc2ccc(F)c(C(F)(F)F)c2)nc(N/N=C/c2ccc(OC(F)(F)F)cc2)n1 [Compound 65] | 100 | 100 |
| Clc1cccc(Nc2cc(Cl)nc(N/N=C/c3ccc(N4CCCC4)cc3)n2)c1 [Compound 44] | 50 | 0 |
| Fc1cnc(N/N=C/c2ccc(OC(F)(F)F)cc2)nc1Nc1ccc(OC(F)(F)F)cc1 [Compound 13] | 100 | 0 |
| FC(F)(F)Oc1ccc(/C=N/Nc2cc(Nc3cc(Cl)cc(C(F)(F)F)c3)nc(Cl)n2)cc1 [Compound 83] | 100 | 100 |
| Clc1ccc(/C=N/Nc2nc(Cl)cc(Nc3ccc(Cl)cc3)n2)cc1 [Compound 25] | 100 | 75 |
| Fc1ccc(Nc2cc(Cl)nc(N/N=C/c3ccc(C(F)(F)F)nc3)n2)cc1C(F)(F)F [Compound 68] | 100 | 100 |
| OC(c1ccc(Nc2cc(F)nc(NN=Cc3ccc(OC(F)(F)F)cc3)n2)cc1)(C(F)(F)F)C(F)(F)F [Compound 21] | 100 | 100 |

| SMILES | HELIZE 50 (ug/cm2), percent control [1] [%] | LAPHEG 50 (ug/cm2), percent control [2] [%] |
| --- | --- | --- |
| Fc1ccc(Nc2ncc(F)c(NN=Cc3ccc(OC(F)(F)F)cc3)n2)cc1C(F)(F)F [Compound 78] | 100 | 100 |
| Fc1ccc(Nc2cc(NN=Cc3ccc(OC(F)(F)F)cc3)ncn2)cc1C(F)(F)F [Compound 85] | 100 | 100 |
| Fc1ccc(Nc2cc(N/N=C/c3ccc(OC(F)(F)F)cc3)nc(NCc3ccc(Cl)nc3)n2)cc1C(F)(F)F [Compound 3, N-[2-(6-Chloropyridin-3-ylmethyl)]-N-[4-(4-fluoro-3-trifluoromethylphenyl)]-6-{N′-[1-(4-trifluoromethoxyphenyl)-methylidene]-hydrazino}pyrimidine-2,4-diamine] | 100 | 100 |
| FC(F)C(F)(F)Oc1cccc(Nc2cc(Cl)nc(N/N=C/c3ccc(C(F)(F)F)nc3)n2)c1 [Compound 69] | 0 | 75 |
| Fc1ccc(Nc2ccnc(N/N=C/c3ccc(OC(F)(F)C(F)F)cc3)n2)cc1C(F)(F)F [Compound 4] | 100 | 100 |
| FC(F)(F)Oc1ccc(/C=N/Nc2nc(Cl)cc(Nc3cccc(Br)c3)n2)cc1 [Compound 37] | 100 | 100 |
| FC(F)(F)c1cccc(Nc2cc(C(F)(F)F)nc(N/N=C/c3cccc(Br)c3)n2)c1 [Compound 55] | 88 | 75 |
| Fc1ccc(Nc2cc(OCC(F)(F)F)nc(N/N=C/c3ccc(OC(F)(F)F)cc3)n2)cc1C(F)(F)F [Compound 63] | 100 | 100 |
| FC(F)(F)Oc1ccc(/C=N/Nc2nc(Cl)cc(Nc3cccc(Cl)c3)n2)cc1 [Compound 39] | 100 | 100 |
| Fc1ccc(/C=N/Nc2nc(Cl)cc(Nc3cccc(Cl)c3)n2)cc1C(F)(F)F [Compound 51] | 50 | 75 |
| Fc1cc(Nc2ccc(F)c(C(F)(F)F)c2)nc(NN=Cc2ccc(OC(F)(F)F)cc2)n1 [Compound 17] | 100 | 100 |
| FC(F)C(F)(F)Oc1cccc(Nc2cc(Cl)nc(N/N=C/c3ccc(OC(F)(F)F)cc3)n2)c1 [Compound 47] | 100 | 100 |
| Fc1ccc(Nc2cc(Cl)nc(N/N=C/c3ccc(Cl)cc3)n2)cc1C(F)(F)F [Compound 11] | 100 | 100 |
| Fc1ccc(Nc2cc(Cl)nc(N/N=C/c3ccc(OC(F)(F)C(F)F)cc3)n2)cc1C(F)(F)F [Compound 59] | 100 | 100 |
| Clc1cccc(Nc2cc(Cl)nc(N/N=C/c3ccc(N4CCCCC4)cc3)n2)c1 [Compound 43] | 63 | 0 |
| COCCNc1cc(Nc2ccc(F)c(C(F)(F)F)c2)nc(N/N=C/c2ccc(OC(F)(F)F)cc2)n1 [Compound 64] | 100 | 100 |
| Fc1ccc(Nc2cc(N/N=C/c3ccc(OC(F)(F)C(F)F)cc3)nc(NCc3ccc(Cl)nc3)n2)cc1C(F)(F)F [Compound 81] | 100 | 0 |
| Fc1ccc(Nc2cc(Cl)nc(N/N=C/c3cccc(Cl)c3)n2)cc1C(F)(F)F [Compound 24] | 100 | 100 |
| Fc1ccc(Nc2nc(Cl)cc(N/N=C/c3ccc(OC(F)(F)F)cc3)n2)cc1C(F)(F)F [Compound 75] | 100 | 100 |

Reference: US8598182B2, “Insecticidal pyrimidinyl aryl hyrdrazones” (Dow AgroSciences, LLC., priority 2007, dated 2013)
